According to ChEMBL document CHEMBL6182832, “Design and synthesis of coumarin-based amphoteric antimicrobials with biofilm interference and immunoregulation effects” (RSC Med Chem, 2025):
Converted amounts (≈) assume the structure as drawn. The source made the active and inactive calls. The calls are words filed in the database; no cut-off is given here.

Legend:
[1] = test system: Staphylococcus aureus; test: Antibacterial activity against clinically isolated methicillin-resistant Staphylococcus aureus assessed as inhibition of bacterial growth measured after 16 to 24 hrs by broth microdilution method; assay type: functional; details: time 16-24 hrs, read-out: MIC100
[2] = test system: Bacillus subtilis; test: Antibacterial activity against clinically isolated Bacillus subtilis ATCC6633 assessed as inhibition of bacterial growth measured after 16 to 24 hrs by broth microdilution method; assay type: functional; details: time 16-24 hrs, read-out: MIC100
[3] = test system: Staphylococcus aureus; test: Anti-biofilm activity against clinically isolated Staphylococcus aureus ATCC29213 assessed inhibition of biofilm formation at 0.5 to 128 ug/ml measured after 12 to 16 hrs incubation by crystal violet staining based analysis; assay type: functional, organism-based; details: dose 0.5-128 µg/ml, time 12-16 hrs
[4] = test system: Staphylococcus aureus; test: Antibacterial activity against clinically isolated Staphylococcus aureus ATCC29213 assessed as inhibition of bacterial growth measured after 16 to 24 hrs by broth microdilution method; assay type: functional; details: time 16-24 hrs, read-out: MIC100
[5] = test system: Bacillus cereus; test: Antibacterial activity against clinically isolated Bacillus cereus CMCC63303 assessed as inhibition of bacterial growth measured after 16 to 24 hrs by broth microdilution method; assay type: functional; details: time 16-24 hrs, read-out: MIC100
[6] = test system: Listeria monocytogenes; test: Antibacterial activity against clinically isolated Listeria monocytogenes CICC21662 assessed as inhibition of bacterial growth measured after 16 to 24 hrs by broth microdilution method; assay type: functional; details: time 16-24 hrs, read-out: MIC100
[7] = Hemolytic activity in rabbit erythrocytes assessed as hemolysis at 0.5 to 125 ug/ml; assay type: toxicity, cell-based, Oryctolagus cuniculus; details: erythrocyte, dose 0.5-125 µg/ml
[8] = test system: Enterococcus faecalis; test: Antibacterial activity against clinically isolated Enterococcus faecalis ATCC29212 assessed as inhibition of bacterial growth measured after 16 to 24 hrs by broth microdilution method; assay type: functional; details: time 16-24 hrs, read-out: MIC100
[9] = test system: Escherichia coli; test: Anti-biofilm activity against clinically isolated Escherichia coli DE17 assessed inhibition of biofilm formation at 0.5 to 128 ug/ml measured after 12 to 16 hrs incubation by crystal violet staining based analysis; assay type: functional, organism-based; details: dose 0.5-128 µg/ml, time 12-16 hrs
[10] = test system: Escherichia coli; test: Antibacterial activity against clinically isolated Escherichia coli ATCC25922 assessed as inhibition of bacterial growth measured after 16 to 24 hrs by broth microdilution method; assay type: functional; details: time 16-24 hrs, read-out: MIC100
[11] = test system: RAW264.7; test: Anti-inflammatory activity against mouse RAW264.7 cells assessed as inhibition LPS-stimulated NO production 0.5 to 4 ug/ml measured after 24 hrs by NO assay kit; assay type: functional, cell-based; details: dose 0.5-4 µg/ml
[12] = test system: Escherichia coli; test: Antibacterial activity against clinically isolated Escherichia coli DE17 assessed as inhibition of bacterial growth measured after 16 to 24 hrs by broth microdilution method; assay type: functional; details: time 16-24 hrs, read-out: MIC100
[13] = test system: Staphylococcus aureus; test: Anti-biofilm activity against clinically isolated Staphylococcus aureus ATCC29213 assessed inhibition of biofilm formation at 2 ug/ml measured after 12 to 16 hrs incubation by crystal violet staining based analysis; assay type: functional; details: time 12-16 hrs
[14] = test system: Escherichia coli; test: Biofilm eradication activity against Escherichia coli DE17 assessed biofilm scavenging at 16 ug/ml measured after 12 to 16 hrs incubation by crystal violet staining based analysis; assay type: functional, organism-based; details: dose 16.0 µg/ml, time 12-16 hrs
[15] = test system: Escherichia coli; test: Anti-biofilm activity against clinically isolated Escherichia coli DE17 assessed inhibition of biofilm formation at 8 ug/ml measured after 12 to 16 hrs incubation by crystal violet staining based analysis; assay type: functional; details: time 12-16 hrs
[16] = Hemolytic activity in rabbit erythrocytes assessed as hemolysis at >8 ug/ml; assay type: toxicity, cell-based, Oryctolagus cuniculus; details: erythrocyte, dose > 8 µg/ml
[17] = test system: Escherichia coli; test: Anti-biofilm activity against clinically isolated Escherichia coli DE17 assessed inhibition of biofilm formation at 16 ug/ml measured after 12 to 16 hrs incubation by crystal violet staining based analysis; assay type: functional; details: time 12-16 hrs
[18] = test system: Staphylococcus aureus; test: Anti-biofilm activity against clinically isolated Staphylococcus aureus ATCC29213 assessed inhibition of biofilm formation at 4 ug/ml measured after 12 to 16 hrs incubation by crystal violet staining based analysis; assay type: functional; details: time 12-16 hrs
[19] = test system: Staphylococcus aureus; test: Biofilm eradication activity against Staphylococcus aureus ATCC29213 assessed biofilm scavenging at 4 ug/ml measured after 12 to 16 hrs incubation by crystal violet staining based analysis; assay type: functional, organism-based; details: dose 4.0 µg/ml, time 12-16 hrs

SMILES	MIC [1]	MIC [4]	MIC [10]	MIC [12]	also measured
O=c1ccc2ccc(O)cc2o1 [UMBELLIFERONE]	> 256 µg/mL	> 256 µg/mL	> 256 µg/mL	> 256 µg/mL	MIC [2]: > 256 µg/mL; Activity [3]: inactive; MIC [5]: > 256 µg/mL; MIC [6]: > 256 µg/mL; Activity [7]: Non-toxic; MIC [8]: > 256 µg/mL; Activity [9]: inactive; Activity [11]: inactive
CCN(CC)CCCCCCCCCCCCOc1cc(=O)oc2ccccc12	2 µg/mL (≈ 4.98 µM)	2 µg/mL (≈ 4.98 µM)	> 256 µg/mL	> 256 µg/mL	inhibition at 2 µg/mL [13]: 100%; Activity [14]: Active; inhibition at 8 µg/mL [15]: 100%; MIC [2]: 1 µg/mL (≈ 2.49 µM); Activity [16]: Toxic; Activity [3]: Dose-dependent-effect; inhibition at 16 µg/mL [17]: 100%; MIC [5]: 4 µg/mL (≈ 9.96 µM); MIC [6]: 1 µg/mL (≈ 2.49 µM); MIC [8]: 4 µg/mL (≈ 9.96 µM); Activity [9]: Dose-dependent-effect; Activity [11]: Active; inhibition at 4 µg/mL [18]: 100%; Activity [19]: Active
CCCCN(CCCC)CCCCCCCCCCCCOc1cc(=O)oc2ccccc12	4 µg/mL (≈ 8.74 µM)	4 µg/mL (≈ 8.74 µM)	> 256 µg/mL	> 256 µg/mL	MIC [2]: 1 µg/mL (≈ 2.18 µM); MIC [5]: 8 µg/mL (≈ 17.5 µM); MIC [6]: 1 µg/mL (≈ 2.18 µM); MIC [8]: 4 µg/mL (≈ 8.74 µM)
CN(C)CCCCOc1cc(=O)oc2ccccc12	> 256 µg/mL	> 256 µg/mL	> 256 µg/mL	> 256 µg/mL	–
CCCN(CCC)CCCCCCCCOc1cc(=O)oc2ccccc12	32 µg/mL (≈ 85.7 µM)	16 µg/mL (≈ 42.8 µM)	> 256 µg/mL	> 256 µg/mL	–
CCCN(CCC)CCCCCCCCCCCCOc1cc(=O)oc2ccccc12	2 µg/mL (≈ 4.66 µM)	4 µg/mL (≈ 9.31 µM)	> 256 µg/mL	> 256 µg/mL	–
CCCCN(CCCC)CCCCCCCCOc1ccc2ccc(=O)oc2c1	32 µg/mL (≈ 79.7 µM)	16 µg/mL (≈ 39.8 µM)	> 256 µg/mL	> 256 µg/mL	–
CCCCN(CCCC)CCCCCCCCCCCCOc1ccc2ccc(=O)oc2c1	4 µg/mL (≈ 8.74 µM)	1 µg/mL (≈ 2.18 µM)	> 256 µg/mL	> 256 µg/mL	–
CN[C@H](CC(C)C)C(=O)N[C@H]1C(=O)N[C@@H](CC(N)=O)C(=O)N[C@H]2C(=O)N[C@H]3C(=O)N[C@H](C(=O)N[C@H](C(=O)O)c4cc(O)cc(O)c4-c4cc3ccc4O)[C@H](O)c3ccc(c(Cl)c3)Oc3cc2cc(c3O[C@@H]2O[C@H](CO)[C@@H](O)[C@H](O)[C@H]2O[C@H]2C[C@](C)(N)[C@H](O)[C@H](C)O2)Oc2ccc(cc2Cl)[C@H]1O [VANCOMYCIN]	–	–	> 256 µg/mL	> 256 µg/mL	MIC [2]: 0.5 µg/mL (≈ 0.345 µM); MIC [6]: 0.5 µg/mL (≈ 0.345 µM); MIC [8]: 2 µg/mL (≈ 1.38 µM)
CCN(CC)CCCCOc1cc(=O)oc2ccccc12	> 256 µg/mL	> 256 µg/mL	> 256 µg/mL	> 256 µg/mL	–
CCCN(CCC)CCCCOc1cc(=O)oc2ccccc12	> 256 µg/mL	> 256 µg/mL	> 256 µg/mL	> 256 µg/mL	–
CN(C)CCCCCCCCOc1cc(=O)oc2ccccc12	64 µg/mL (≈ 202 µM)	32 µg/mL (≈ 101 µM)	> 256 µg/mL	> 256 µg/mL	–
CN(C)CCCCCCCCCCCCOc1cc(=O)oc2ccccc12	4 µg/mL (≈ 10.7 µM)	4 µg/mL (≈ 10.7 µM)	> 256 µg/mL	> 256 µg/mL	–
O=c1cc(O)c2ccccc2o1 [4-HYDROXYCOUMARINS]	> 256 µg/mL	256 µg/mL (≈ 1580 µM)	> 256 µg/mL	> 256 µg/mL	MIC [2]: > 256 µg/mL; MIC [5]: > 256 µg/mL; MIC [6]: > 256 µg/mL; MIC [8]: > 256 µg/mL
CN(C)CCCCCCCCCCCCOc1ccc2ccc(=O)oc2c1	4 µg/mL (≈ 10.7 µM)	16 µg/mL (≈ 42.8 µM)	> 256 µg/mL	> 256 µg/mL	–
CCN(CC)CCCCCCCCOc1cc(=O)oc2ccccc12	4 µg/mL (≈ 11.6 µM)	64 µg/mL (≈ 185 µM)	> 256 µg/mL	> 256 µg/mL	–
CCCCN(CCCC)CCCCOc1cc(=O)oc2ccccc12	> 256 µg/mL	256 µg/mL (≈ 741 µM)	> 256 µg/mL	> 256 µg/mL	–
CN(C)CCCCCCCCOc1ccc2ccc(=O)oc2c1	64 µg/mL (≈ 202 µM)	> 128 µg/mL	> 256 µg/mL	> 256 µg/mL	–
CCCCN(CCCC)CCCCCCCCOc1cc(=O)oc2ccccc12	32 µg/mL (≈ 79.7 µM)	16 µg/mL (≈ 39.8 µM)	> 256 µg/mL	> 256 µg/mL	–
CCN1CCN(c2cc3c(cc2F)c(=O)c(C(=O)O)cn3C2CC2)CC1 [ENROFLOXACIN]	32 µg/mL (≈ 89 µM)	0.062 µg/mL (≈ 0.173 µM)	0.031 µg/mL (≈ 0.0863 µM)	0.031 µg/mL (≈ 0.0863 µM)	–
CCCCN(CCCC)CCCCOc1ccc2ccc(=O)oc2c1	> 256 µg/mL	> 256 µg/mL	> 256 µg/mL	> 256 µg/mL	–
CCCN(CCC)CCCCCCCCCCCCOc1ccc2ccc(=O)oc2c1	4 µg/mL (≈ 9.31 µM)	8 µg/mL (≈ 18.6 µM)	> 256 µg/mL	> 256 µg/mL	–
CCCN(CCC)CCCCOc1ccc2ccc(=O)oc2c1	> 256 µg/mL	> 256 µg/mL	> 256 µg/mL	> 256 µg/mL	–
CCCN(CCC)CCCCCCCCOc1ccc2ccc(=O)oc2c1	32 µg/mL (≈ 85.7 µM)	32 µg/mL (≈ 85.7 µM)	> 256 µg/mL	> 256 µg/mL	–
CCN(CC)CCCCCCCCOc1ccc2ccc(=O)oc2c1	64 µg/mL (≈ 185 µM)	64 µg/mL (≈ 185 µM)	> 256 µg/mL	> 256 µg/mL	–
CCN(CC)CCCCOc1ccc2ccc(=O)oc2c1	> 256 µg/mL	> 256 µg/mL	> 256 µg/mL	> 256 µg/mL	–
CN(C)CCCCOc1ccc2ccc(=O)oc2c1	> 256 µg/mL	> 256 µg/mL	> 256 µg/mL	> 256 µg/mL	–
